Data from patent US11566233B2, “Three-dimensional in vitro lung model, process for preparing said model, and its use for determining and /or predicting the sensitizing effects of inhalable products” (LUXEMBOURG INSTITUTE OF SCIENCE AND TECHNOLOGY, priority 2016, dated 2023).
Like-named read-outs stand apart in the source and are kept apart here.

Key:
[1] = Solubility in medium containing 0.2% of DMSO; assay type: physicochemical
Description: (§1) FIGS. 11A and 11B are diagrams showing viability of THP-1 cells after 24 h exposure to PA (FIG. 11A) and TMA (FIG. 11B) in monoculture in submerged conditions. In this figure, the highest tested concentrations represent the maximum of solubility of the compounds in medium containing 0.2% of DMSO.

[2] = test system: tetraculture lung model (A549, EA.hy926, THP-1, Mϕ-THP-1); assay: Alamar Blue viability of the tetraculture lung model after Vitrocell Cloud exposure at the air-liquid interface; settings: 24 h and 48 h after exposure
Description: (§4) Example of exposure of the inserts is performed in a Vitrocell® Cloud device (Waldkirch, Germany), previously cleaned under sterile conditions, and maintained at 37° C. The inserts are placed into the device. A cloud, from 200 to 500 μL of the product to be tested) is then distributed homogenously inside the chamber and starts to settle on the surface. After about 10 to 30 minutes (depending on the injected product), the cloud is settled by single droplet sedimentation. The concentration which is deposited on the insert can be calculated in g/cm^2.
(§5) Inserts prepared according to example 1 were exposed to chemical compounds and to positive controls using the Vitrocell® Cloud system (Vitrocell, Waldkirch, Germany). All compounds were diluted in a 1/1(v/v) solution of sterile saline solution and PBS.
(§6) Inserts were exposed to a range of concentrations to chemical respiratory irritants and sensitizers in order to determine first the viability of the tissue using the Alamar Blue assay. […] Upon entering cells, resazurin is reduced to pink highly fluorescent resorufin. Viable cells continuously convert resazurin to resorufin. The fluorescence is proportional to cell viability.
(§7) Following 24 h and 48 h exposure to the compounds through the Vitrocell cloud, cells were incubated for 1 hour to 400 μM of Alamar Blue diluted in Coculture 1% medium.
(§8) Viability was assessed using the Alamar Blue assay 24 h and 48 h after exposure according to the protocol detailed in example 2 above.
(§9) The concentration leading to 25% of cytotoxicity (meaning 75% of viability: CV75) relatively compared to the vehicle control was determined using the graphs presented in example 2.

[3] = test system: THP-1 cells in the tetraculture lung model; assay: Flow cytometry of cell surface marker expression on THP-1 cells in the tetraculture lung model; assay type: cell-based, human; settings: 24 h exposure, compared to control
Description: 24 h and 48 h after exposure to the Vitrocell Cloud, THP-1 DC were recovered in the medium in the well. After centrifugation for 5 minutes at 300 g, cells were washed with PBS and staining was performed using antibodies listed in table 1 below (following the manufacturer's recommended dilutions) and the corresponding isotype control to determine the unspecific binding of the antibody and ensure the observed staining is due to specific binding rather than an artifact.
Relative Fluorescence Intensity (RFI) was used as an indicator of OX40L, IL7ra, CD40 and CD86 and CD54 expression and was calculated by the following formula I: […]
(§2) To measure the expression of cell surface markers and the release of different cytokines, the cells of inserts prepared according to example 1 above were exposed to the CV75 or, when it was not possible to reach 75% of viability, cells were exposed to the maximum of solubility of the compounds.
(§3) After 24 h and 48 h, THP-1 cells were recovered, stained and analysed using a flow cytometer according to the protocol detailed in example 2 above. Supernatants were recovered for cytokines measurements.

[4] = test system: tetraculture in vitro lung model; assay: Cytokines released in the tetraculture in vitro lung model; assay type: cell-based, human; design: key: ?: indicates a decrease of cytokine release compared to the vehicle control; ?: indicates an increase of cytokine release compared to the vehicle control; =: indicates no change observed between exposure and the vehicle control; ?: indicates a decrease of cytokine release compared to the vehicle control; ?: indicates an increase of cytokine release compared to the vehicle control
Description: as §2, §3
Table 2 below gives a summary of the results obtained for all cytokines measured, wherein, ? indicates a decrease of cytokine release compared to the vehicle control, ? indicates an increase of cytokine release compared to the vehicle control and =indicates no change observed between exposure and the vehicle control: […]

[5] = test system: THP-1 cells in monoculture; assay: Viability of THP-1 cells in monoculture in submerged conditions; assay type: cell-based, human; settings: 24 h exposure, up to maximum of solubility in medium containing 0.2% of DMSO
Description: as §1

[6] = test system: THP-1 cells in monoculture; assay: Cell surface marker expression on THP-1 cells in monoculture, submerged conditions (h-CLAT reproduction); assay type: cell-based, human; settings: 24 h exposure
From the text: In parallel, THP-1 cells were exposed in submerged conditions in monoculture in order to reproduce the data obtained using the h-CLAT (human cell line activation test) assay. The h-CLAT assay is based on the property of chemicals to activate dendritic cells, property which is common to both skin and respiratory sensitizers. The h-CLAT is an in vitro model validated at the European level (ECVAM validation).
On a comparative purpose, the expression of CD86 and CD54 cell surface markers were also evaluated in the h-CLAT. It is currently recommended to use the h-CLAT to assess the skin sensitizing potential of chemicals. As skin and lung share the DC activation property, h-CLAT may be considered to be used to assess also the respiratory sensitizing potential of chemicals. To remind, there is no validated models to assess respiratory sensitization available on the market yet.
As different antibodies, fluorochromes and equipment were used to measure the CDs expression, threshold level obtained in literature on the h-CLAT could not be compared to those measured in this example.

[7] = test system: tetraculture lung model (A549, EA.hy926, THP-1, Mϕ-THP-1)
Description: as §4, §5, §6, §7, §8, §9

Molecule	solubility [1]	cell viability of the alveolar tissue model (in words) [2]	expression of cell surface marker CD54 on THP-1 cells [3]	expression of cell surface marker CD86 on THP-1 cells [3]	IL-7 release compared to the vehicle control ([4]; 24 h)	MCP-1 release compared to the vehicle control ([4]; 24 h)	IL-7 release compared to the vehicle control ([4]; 48 h)	cytotoxicity of THP-1 cells [5]	expression of CD54 on THP-1 cells [6]	expression of cell surface marker IL7ra on THP-1 cells [3]	RANTES release compared to the vehicle control ([4]; 24 h)	MCP-1 release compared to the vehicle control ([4]; 48 h)	expression of CD86 on THP-1 cells [6]	IL-10 release compared to the vehicle control ([4]; 48 h)	cell viability of the alveolar tissue model (in words) [7]
O=C1OC(=O)c2ccccc21 [PA, Phthalic Anhydrid]	low solubility	decrease in viability	Increases	Increases	=	=	=	not possible to reach any cytotoxity	–	–	–	–	–	–	–
C=CC=O [Acrolein]	–	–	no increase	no increase	–	–	–	–	increase	decrease	=	=	–	–	–
O=C(O)c1ccc2c(c1)C(=O)OC2=O [TMA, Trimellitic Anhydride]	low solubility	decrease in viability	Increases	Increases	=	=	=	not possible to reach any cytotoxity	–	–	–	=	lower than the vehicle control	=	–
Bet v1: additional known protein sensitizer; important protein allergen of pollen (protein, UniProt P15494 2-160, looked up) Major pollen allergen Bet v …: GVFNYETETTSVIPAARLFKAFILDGDNLFPKVAPQAISSVENIEGNGGPGTIKKISFPEGFPFKYVKDRVDEVDHTNFKYNYSVIEGGPIGDTLEKISNEIKIVATPDGGSILKISNKYHTKGDHEVKAEQVKASKEMGETLLRAVESYLLAHSDAYN	–	–	–	–	–	–	–	–	–	–	–	–	–	–	No effect
